Where a name gives a salt, the structure may show the parent alone.
How the values were obtained:
[1] = Aerosol performance by Next Generation Impactor (NGI), drug quantified by HPLC; format: physicochemical; details: BDP + FF 100 + 6 μg/10 mg DPI 37° C. 75% RH T-vol 500; connected to ventilation system through the connector
Experimental: A powder formulation was prepared according to the teaching of Examples 2 and 3 of WO 2013/110632 and loaded in the multi-dose dry powder inhaler described in WO 2016/000983. A ventilator system Monnal T75, available from Air Liquid Medical Systems […], Italy) was used. A Catheter mounth (ID 10 mm, length 17 cm) and an endotracheal catheter (ID 8 mm, length 8.5 cm) were also utilized. Other equipments were standard. The following conditions were set-up: tidal volume: 500 ml; PEEP 5 cmH2O; Flow rate: about 41 l/min; breath frequency: 15 bpm. All tests were performed at room temperature and lung temperature (about 37° C.) with in line humidification (about 75% relative humidity system). The inhaler was connected to the ventilation system through the connector of the invention. The evaluation of the aerosol performance was carried out using the Next Generation Impactor (NGI) according to the conditions reported in the European Pharmacopeia 8.5th Ed 2015, par 2.9.18, pages 309-320. After aerosolization of three doses from the inhaler device, the NGI apparatus was disassembled and the amounts of drug deposited in the stages were recovered by washing with a solvent mixture and then quantified by High-Performance Liquid Chromatography (HPLC).

[2] = as above; format: physicochemical; details: BDP + FF 100 + 6 μg/10 mg DPI - Release

| Compound | DD (delivered dose) [1] | EFPF (extrafine particle fraction) [1] | EFPM (extrafine FPM) [1] | FPF (fine particle fraction) [1] | FPM (fine particle mass, particle size equal to or lower than 5.0 micron) [1] | DD (delivered dose) [2] | EFPF (extrafine particle fraction) [2] | EFPM (extrafine FPM) [2] | FPF (fine particle fraction) [2] | FPM (fine particle mass, particle size equal to or lower than 5.0 micron) [2] |
| --- | --- | --- | --- | --- | --- | --- | --- | --- | --- | --- |
| CCC(=O)OCC(=O)[C@@]1(OC(=O)CC)[C@@H](C)C[C@H]2[C@@H]3CCC4=CC(=O)C=C[C@]4(C)[C@@]3(Cl)[C@@H](O)C[C@@]21C [BDP, beclometasone dipropionate] | 66.52 µg | 34.76 % on DD | 23.12 µg | 61.92 % on DD | 41.19 µg | 81.05 µg | 29.43 % on DD | 23.85 µg | 64.14 % on DD | 51.99 µg |
| COc1ccc(CC(C)NCC(O)c2ccc(O)c(NC=O)c2)cc1 (stereo not drawn) [FF, formoterol fumarate dihydrate] | 3.84 µg | – | – | – | – | 4.64 µg | – | – | – | – |

Source: US12097329B2, “Apparatus to administer drugs to mechanically ventilated patients” (Chiesi Farmaceutici S.p.A., priority 2018, dated 2024)
